Data: US5011930A, “Quinoline type mevalonolactones” (Nissan Chemical Industries Ltd., priority 1987, dated 1991)
Counter-ions that a name gives are not always drawn.

Key:
cholesterol biosynthesis = test: Test A: Inhibition of cholesterol biosynthesis from acetate in vitro; format: biochemical, male Wistar rat (liver microsome and sup fraction); details: for Relative activities by Test A: relative to the activity of CS-514 being evaluated to be 1; for IC50: [2-^14 C]sodium acetate incorporation into nonsaponifiable lipids, 2 hours at 37° C., read-out: Inhibitory activities by Test A: I50 (molar concentration)
Description: Enzyme solution was prepared from liver of male Wistar rat billialy cannulated and discharged bile for over 24 hours. Liver was cut out at mid-dark and microsome and supernatant fraction which was precipitable with 40-80% of saturation of ammonium sulfate (sup fraction) were prepared from liver homogenate according to the modified method of Knauss et. al.; Kuroda, M., et. al., Biochim. Biophys. Acta, 489, 119 (1977). For assay of cholesterol biosynthesis, microsome (0.1 mg protein) and sup fraction (1.0 mg protein) were incubated for 2 hours at 37° C. in 200 μl of the reaction mixture containing ATP; 1 mM, Glutathione; 6 mM, Glucose-1-phosphate; 10 mM, NAD; 0.25 mM, NADP; 0.25 mM, CoA; 0.04 mM and 0.2 mM [2-^14 C]sodium acetate (0.2 μCi) with 4 μl of test compound solution dissolved in water or dimethyl sulfoxide. To stop reaction and saponify, 1 ml of 15% EtOH-KOH was added to the reactions and heated at 75° C. for 1 hour. […] Inhibitory activity of compounds was indicated with IC50.

[1] = test system: cholesterol biosynthesis in Hep G2 cells; test: Test B-1: Inhibition of cholesterol biosynthesis in culture cells (Hep G2); format: cell-based; details: for Relative activities by Test B-1: relative to the activity of CS-514 being evaluated to be 1
Description: Hep G2 cells at over 5th passage were seeded to 12 well plates and incubated with Dulbecco's modified Eagle (DME) medium containing 10% of fetal bovine serum (FBS) at 37° C., 5% CO2 until cells were confluent for about 7 days. Cells were exposed to the DME medium containing 5% of lipoprotein deficient serum (LpDS) prepared by ultracentrifugation method for over 24 hours. Medium was changed to 0.5 ml of fresh 5% LpDS containing DME before assay and 10 μl of test compound solution dissolved in water or DMSO were added. 0.2 μCi of [2-^14 C]sodium acetate (20 μl) was added at 0 hr(B-1) or 4 hrs(B-2) after addition of compounds. After 4 hrs further incubation with [2-^14 C]sodium acetate, medium was removed and cells were washed with phosphate buffered saline(PBS) chilled at 4° C. Cells were scraped with rubber policeman and collected to tubes with PBS and digested with 0.2 ml of 0.5 N KOH at 37° C. Aliquot of digestion was used for protein analysis and remaining was saponified with 1 ml of 15% EtOH--KOH at 75° C. for 1 hour. […] Counts were revised by cell protein and indicated with DPM/mg protein. Inhibitory activity of compounds was indicated with IC50.

| SMILES | Relative activities by Test A (cholesterol biosynthesis) | IC50 (cholesterol biosynthesis) [nM] | other results |
| --- | --- | --- | --- |
| CC(C)c1nc2c(Cl)cc(Cl)cc2c(-c2ccc(F)cc2)c1/C=C/C(O)CC(O)CC(=O)O (stereo not drawn) [I-522] | 0.76 | – | – |
| CCOC(=O)CC(O)CC(O)/C=C/c1c(C2CC2)nc2ccccc2c1-c1ccc(F)cc1 (stereo not drawn) [I-120] | 3.21 | – | – |
| CCOC(=O)CC(O)CC(O)/C=C/c1c(C(C)C)nc2cc(OC)c(OC)cc2c1-c1ccc(F)cc1 (stereo not drawn) [I-116] | 2.25 | – | Relative activities by Test B-1 [1]: 19.4 |
| CCOC(=O)CC(=O)CC(O)/C=C/c1c(C2CC2)nc2ccccc2c1-c1ccc(F)cc1 (stereo not drawn) [II-20] | – | – | Relative activities by Test B-1 [1]: 20.8 |
| CCOC(=O)CC(O)CC(O)/C=C/c1c(C(C)C)nc2ccc(Cl)cc2c1-c1ccccc1 (stereo not drawn) [I-16] | 1.75 | – | – |
| CCOC(=O)CC(O)CC(O)/C=C/c1c(C)nc2ccccc2c1-c1ccccc1 (stereo not drawn) [I-13] | – | 125 | – |
| CC[C@H](C)C(=O)O[C@H]1C[C@@H](C)C=C2C=C[C@H](C)[C@H](CC[C@@H]3C[C@@H](O)CC(=O)O3)[C@H]21 [Mevinolin, reference compound] | – | 14 | – |
| CCOC(=O)CC(O)CC(O)/C=C/c1c(CC)nc2ccccc2c1-c1ccc(F)cc1 (stereo not drawn) [I-117] | 0.37 | – | – |
| CC[C@H](C)C(=O)O[C@H]1C[C@H](O)C=C2C=C[C@H](C)[C@H](CC[C@@H](O)C[C@@H](O)CC(=O)O)[C@H]21 [CS-514, reference compound] | – | 9 | – |
| Cc1nc2ccccc2c(-c2ccc(F)cc2)c1/C=C/C(O)CC(O)CC(=O)O (stereo not drawn) [I-52] | – | 71 | – |
| O=C(O)CC(O)CC(O)/C=C/c1c(C2CC2)nc2ccccc2c1-c1ccc(F)cc1 (stereo not drawn) [I-520] | – | – | Relative activities by Test B-1 [1]: 20.0 |
| Cc1nc2ccccc2c(-c2ccccc2)c1/C=C/C(O)CC(O)CC(=O)O (stereo not drawn) [I-53] | – | 190 | – |
| CC(C)c1nc2ccccc2c(-c2ccc(F)cc2)c1/C=C/C(O)CC(O)CC(=O)O (stereo not drawn) [I-51, Sodium salt of (E)-3,5-dihydroxy-7-[4'-(4"-fluorophenyl)-2'-(1"-methylethyl)-quinolin-3'-yl]-hept-6-enoic acid] | – | 10 | IC50 ([1]; Homo sapiens, HepG2, [2-^14 C]sodium acetate added at 0 hr after addition of compounds, 4 hrs incubation, read-out: Inhibitory activities by Test B-1: I50 (molar concentration)): 100 nM |
